Source: US20240182445A1 (ONO PHARMACEUTICAL CO., LTD., priority 2019, published 2024)

Legend:
human TREK-1 [1] = target: T1, human TREK-1 (Homo sapiens, UniProt O95069); experiment: TREK-1 Thallium flux assay, Method 2; format: cell-based; conditions: measured by Method 2 of TREK1 Thalium flux assay (footnote *12); read-out: Tl+ Assay IC50
T1 construct: expressed in transfected cells
T1 sequence (O95069 1-426): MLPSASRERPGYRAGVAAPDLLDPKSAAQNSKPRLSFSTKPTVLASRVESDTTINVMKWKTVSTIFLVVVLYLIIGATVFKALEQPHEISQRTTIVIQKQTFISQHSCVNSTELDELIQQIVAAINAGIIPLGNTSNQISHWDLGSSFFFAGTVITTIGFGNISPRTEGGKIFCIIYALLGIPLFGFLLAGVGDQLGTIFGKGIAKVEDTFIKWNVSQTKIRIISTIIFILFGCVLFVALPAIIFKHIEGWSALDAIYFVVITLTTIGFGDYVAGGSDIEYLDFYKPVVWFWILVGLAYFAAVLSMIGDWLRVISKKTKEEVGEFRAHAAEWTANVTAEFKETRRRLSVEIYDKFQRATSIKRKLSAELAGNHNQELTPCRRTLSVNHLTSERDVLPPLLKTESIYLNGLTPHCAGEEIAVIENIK
Experimental: CHO-K1 cells stably expressing human TREK-1 were plated in 384-well plates on the day of assay, loaded with Thallos dye. Test compounds or control compound (tert-butyl (3-((4-(benzyloxy)-2-methylphenyl)carbamoyl)-4-chlorophenyl)carbamate) or 0.3% DMSO (vehicle control) were added directly to the cell plates and incubated for 10 min, and then treated with thallium stimulus buffer to initiate thallium flux. To measure the efficacy and potency of test compounds, the change in fluorescence intensity (ΔRatio) and % inhibition were calculated using the following equations:
ΔRatio=(fluorescence intensity at 25 seconds after thallium addition)/(average of fluorescent intensity before thallium addition)

human TREK-1 [2] = target: T1, human TREK-1; experiment: TREK-1 Manual Patch Clamp (hMPC) assay; format: cell-based; conditions: CHO-K1 cells stably expressing human TREK-1; whole-cell current at 0 mV
Experimental: The term “patch clamp technique” herein refers to the “gold standard” technique for evaluating TREK channel pharmacology. The detail method is described below.
CHO-K1 cells stably expressing human TREK-1 or HEK293 cells stably expressing human TREK-2 are plated on glass coverslips, and voltage clamped in the whole-cell configuration of the patch clamp technique. Cells were voltage clamped at a holding potential of −80 mV and the stepped to 0 mV for 500 msec. The voltage was subsequently ramped from −120 mV to +80 mV over a 500 msec duration. This step-ramp protocol was repeated every 10 sec. The bathing solution contained the following: 135 mM NaCl, 5 mM KCl, 2 mM CaCl2, 1 mM MgCl2, 5 mM D-Glucose, 10 mM HEPES, 10 mM sucrose (adjusted to pH 7.4 with NaOH, 300 mosmol/kg H2O). The pipette solution contained the following: 135 mM KCl, 2 mM MgCl2, 1 mM EGTA, 10 mM HEPES, 2 mM Na2ATP (adjusted to pH 7.35 with KOH, 285 mosmol/kg H2O). Test compounds were dissolved into the bathing solution. Experiments on TREK-2 were terminated with the addition of the control compound (tert-butyl (3-((4-(benzyloxy)-2-methylphenyl)carbamoyl)-4-chlorophenyl)carbamate) so that maximal inhibition could be determined. The effects of test compound on the currents were calculated at 0 mV using the following equations:
For CHO cells expressing TREK-1 channel: % inhibition=(1-post current/pre current)×100
The compounds shown in Table 2 were prepared in an analogous manner with the appropriate starting materials, and evaluated in our TREK-1 Manual Patch Clamp (hMPC) assay.

IC50 (human TREK-1 [1]): 130 nM
IC50 (human TREK-1 [2]): 100 nM
SMILES: Cc1cc(C#Cc2ccccc2)cnc1NC(=O)c1c(Cl)cnn1[C@H]1CCN(C(=O)C2CC2)C1 [Compound 454, 4-chloro-1-[(3S)-1-(cyclopropanecarbonyl)pyrrolidin-3-yl]-N-[3-methyl-5-(phenylethynyl)pyridin-2-yl]-1H-pyrazole-5-carboxamide]
